Results on 8 compounds are retold here after the supplement of paper PMC9663587.

Test systems include CAL51; EFM19; HCC1187; HCC1954; HCC38; HS578T; MCF12A; MDAMB436; MDAMB468; SKBR3; UACC812; ZR7530.
Holding throughout (experiment): GRmax, 72 h; higher = less effect;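 note: breast cell lines in 384-well plates, nine doses across a 10^4 range, Dye Drop imaging of viable cells vs DMSO and time-zero plates, GR 0 means no net growth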

As for `C[C@@H]1COCCN1c1cc(C2([S@](C)(=N)=O)CC2)nc(-c2cc[nH]c3nccc2-3)n1` [AZD6738] (max 10 µM), the “GRmax, 72 h” value in the test with CAL51 is 0.0335 GR; in the test with EFM19, 0.845 GR; in the test on HCC1187 it was -0.332 GR; with HCC1954 it was 0.15 GR; in the test on HCC38, -0.271 GR; in the test on HS578T it was 0.0076 GR. The “GRmax, 72 h” value with MCF12A is -0.0672 GR; with MDAMB436, 0.363 GR; in the test on MDAMB468 it was 0.529 GR; in the test on SKBR3, -0.0886 GR; with UACC812 it was 0.305 GR; with ZR7530, 0.61 GR.

On to `C=CC(=O)Nc1ccc(C(=O)Nc2[nH]nc3c2CN(C(=O)N[C@H](CN(C)C)c2ccccc2)C3(C)C)cc1` [YKL-5-124] (max 10 µM), for which the “GRmax, 72 h” value in the test with CAL51 was 0.0082 GR; with EFM19 it was 0.0431 GR; with HCC1187 it was -0.635 GR; in the test with HCC1954, -0.14 GR; in the test on HCC38, -0.39 GR; with HS578T, -0.445 GR. Moreover, the “GRmax, 72 h” value in the test on MCF12A is 0.0267 GR; with MDAMB436, -0.0111 GR; with MDAMB468, -0.493 GR; in the test on SKBR3, -0.602 GR; in the test on UACC812, -0.403 GR; in the test with ZR7530, -0.625 GR.

On to `CC[C@@]1(O)C(=O)OCc2c1cc1n(c2=O)Cc2cc3c(CN(C)C)c(O)ccc3nc2-1` [Topotecan] (max 10 µM), for which the “GRmax, 72 h” value is -0.53 GR with CAL51; -0.401 GR in the test with HCC1954; -0.504 GR in the test on HCC38; -0.449 GR with HS578T; -0.14 GR in the test on MDAMB436; -0.658 GR in the test with MDAMB468. In addition, the “GRmax, 72 h” value in the test on SKBR3 is -0.271 GR.

Consider `CCCCOc1c(C(=O)c2c(F)cc(C)cc2F)c[nH]c2nncc1-2` (max 10 µM), for which the “GRmax, 72 h” value in the test on CAL51 is 0.28 GR; in the test on EFM19 it was 0.188 GR; in the test with HCC1187 it was 0.437 GR; in the test on HCC1954, -0.0431 GR; in the test on HCC38 it was -0.0129 GR; in the test with HS578T it was -0.0288 GR. Further, the “GRmax, 72 h” value in the test on MCF12A is 0.338 GR; in the test on MDAMB436, 0.264 GR; in the test on MDAMB468, -0.112 GR; with SKBR3 it was -0.0172 GR; with UACC812, -0.394 GR; in the test on ZR7530, 0.212 GR.

On to `CC(=O)O[C@H]1C(=O)[C@@]2(C)[C@H]([C@H](OC(=O)c3ccccc3)[C@]3(O)C[C@H](OC(=O)[C@H](O)[C@@H](NC(=O)c4ccccc4)c4ccccc4)C(C)=C1C3(C)C)[C@]1(OC(C)=O)CO[C@@H]1C[C@@H]2O` [Paclitaxel] (max 1 µM), for which the “GRmax, 72 h” value with CAL51 is -0.22 GR; in the test on EFM19, -0.639 GR; in the test on HCC1187 it was -0.754 GR; with HCC1954 it was -0.396 GR; in the test with HCC38 it was -0.308 GR; in the test on HS578T, -0.375 GR. Besides, the “GRmax, 72 h” value in the test with MCF12A was -0.124 GR; in the test on MDAMB436, -0.218 GR; in the test on MDAMB468, -0.522 GR; in the test with SKBR3, -0.34 GR; with UACC812, -0.852 GR; with ZR7530, -0.597 GR.

For the compound `CCN1CCN(Cc2ccc(Nc3ncc(F)c(-c4cc(F)c5nc(C)n(C(C)C)c5c4)n3)nc2)CC1` (max 10 µM), the “GRmax, 72 h” value in the test on CAL51 was -0.464 GR; in the test on EFM19, 0.267 GR; in the test on HCC1187, 0.0999 GR; in the test on HCC1954, -0.505 GR; in the test on HCC38, -0.327 GR; with HS578T it was -0.583 GR. Moreover, the “GRmax, 72 h” value in the test with MCF12A was 0.393 GR; with MDAMB436 it was -0.333 GR; with MDAMB468, -0.288 GR; in the test with SKBR3 it was 0.143 GR; in the test with UACC812, -0.603 GR; in the test on ZR7530, 0.125 GR.

As to `CN(C)C(=O)c1cc2cnc(Nc3ccc(N4CCNCC4)cn3)nc2n1C1CCCC1` [LEE011/Ribociclib] (max 10 µM), the “GRmax, 72 h” value with CAL51 worked out at 0.385 GR; in the test on EFM19, 0.386 GR; with HCC1187, 0.56 GR; in the test on HCC1954, 0.543 GR; in the test with HCC38 it was 0.241 GR; in the test with HS578T, 0.376 GR. The “GRmax, 72 h” value with MCF12A is 0.789 GR; in the test on MDAMB436, 0.951 GR; in the test on MDAMB468, 0.947 GR; with SKBR3, 0.476 GR; in the test on UACC812 it was 0.0889 GR; in the test with ZR7530, 0.41 GR.

For `Cc1nc(Nc2ncc(C(=O)Nc3c(C)cccc3Cl)s2)cc(N2CCN(CCO)CC2)n1` [Dasatinib] (max 10 µM), the “GRmax, 72 h” value was 0.0983 GR in the test on CAL51; -0.0421 GR in the test on EFM19; 0.069 GR in the test with HCC1187; 0.274 GR in the test on HCC1954; 0.332 GR in the test on HCC38; -0.244 GR with HS578T. Further, the “GRmax, 72 h” value in the test on MCF12A is -0.0434 GR; in the test with MDAMB436 it was 0.653 GR; in the test on MDAMB468 it was 0.339 GR; in the test on SKBR3, 0.081 GR; in the test on UACC812, -0.714 GR; in the test on ZR7530 it was -0.0607 GR.
